This is an account of results in ChEMBL document CHEMBL3991601, “The target landscape of clinical kinase drugs” (Science, 2017).

The structures appear in SMILES notation. Structures can show the parent of a compound that is named as a salt. The source made the active and inactive calls.

For assay [1], the target named is T1, Dual specificity mitogen-activated protein kinase kinase 6 (Homo sapiens, UniProt P52564).
T1 sequence (P52564 whole entry): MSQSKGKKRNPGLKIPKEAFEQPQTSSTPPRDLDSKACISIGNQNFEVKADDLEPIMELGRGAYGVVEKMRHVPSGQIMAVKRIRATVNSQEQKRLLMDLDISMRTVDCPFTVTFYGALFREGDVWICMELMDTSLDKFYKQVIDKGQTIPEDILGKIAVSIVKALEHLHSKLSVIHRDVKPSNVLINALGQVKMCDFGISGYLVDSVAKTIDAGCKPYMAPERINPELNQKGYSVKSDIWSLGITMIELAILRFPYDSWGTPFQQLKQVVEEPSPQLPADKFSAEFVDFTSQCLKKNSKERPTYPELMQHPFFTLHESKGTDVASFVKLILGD

For assay [2], the target named is T2, Serine/threonine-protein kinase ULK3 (Homo sapiens, UniProt Q6PHR2).
T2 sequence (Q6PHR2 whole entry): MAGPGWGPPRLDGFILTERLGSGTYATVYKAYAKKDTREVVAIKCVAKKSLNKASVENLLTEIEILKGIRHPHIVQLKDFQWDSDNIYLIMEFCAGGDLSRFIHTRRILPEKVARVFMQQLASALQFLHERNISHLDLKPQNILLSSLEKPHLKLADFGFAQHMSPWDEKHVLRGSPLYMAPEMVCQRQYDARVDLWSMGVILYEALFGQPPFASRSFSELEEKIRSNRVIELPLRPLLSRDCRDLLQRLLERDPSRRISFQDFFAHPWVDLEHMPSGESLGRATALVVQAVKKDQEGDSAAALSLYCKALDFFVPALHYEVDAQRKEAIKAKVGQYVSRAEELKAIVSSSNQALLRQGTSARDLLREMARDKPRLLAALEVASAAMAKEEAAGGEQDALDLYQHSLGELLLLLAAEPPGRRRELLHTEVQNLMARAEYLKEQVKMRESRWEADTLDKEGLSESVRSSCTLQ

In assay [3] the target is Receptor-interacting serine/threonine-protein kinase 3 (Homo sapiens, UniProt Q9Y572).
Assay [4] has as its target Serine/threonine-protein kinase MRCK alpha (Homo sapiens, UniProt Q5VT25).
Assay [5] has as its target Serine/threonine-protein kinase pim-1 (Homo sapiens, UniProt P11309).
For assay [6], the target named is T3, Mitogen-activated protein kinase kinase kinase kinase 3 (Homo sapiens, UniProt Q8IVH8).
T3 sequence (Q8IVH8 whole entry): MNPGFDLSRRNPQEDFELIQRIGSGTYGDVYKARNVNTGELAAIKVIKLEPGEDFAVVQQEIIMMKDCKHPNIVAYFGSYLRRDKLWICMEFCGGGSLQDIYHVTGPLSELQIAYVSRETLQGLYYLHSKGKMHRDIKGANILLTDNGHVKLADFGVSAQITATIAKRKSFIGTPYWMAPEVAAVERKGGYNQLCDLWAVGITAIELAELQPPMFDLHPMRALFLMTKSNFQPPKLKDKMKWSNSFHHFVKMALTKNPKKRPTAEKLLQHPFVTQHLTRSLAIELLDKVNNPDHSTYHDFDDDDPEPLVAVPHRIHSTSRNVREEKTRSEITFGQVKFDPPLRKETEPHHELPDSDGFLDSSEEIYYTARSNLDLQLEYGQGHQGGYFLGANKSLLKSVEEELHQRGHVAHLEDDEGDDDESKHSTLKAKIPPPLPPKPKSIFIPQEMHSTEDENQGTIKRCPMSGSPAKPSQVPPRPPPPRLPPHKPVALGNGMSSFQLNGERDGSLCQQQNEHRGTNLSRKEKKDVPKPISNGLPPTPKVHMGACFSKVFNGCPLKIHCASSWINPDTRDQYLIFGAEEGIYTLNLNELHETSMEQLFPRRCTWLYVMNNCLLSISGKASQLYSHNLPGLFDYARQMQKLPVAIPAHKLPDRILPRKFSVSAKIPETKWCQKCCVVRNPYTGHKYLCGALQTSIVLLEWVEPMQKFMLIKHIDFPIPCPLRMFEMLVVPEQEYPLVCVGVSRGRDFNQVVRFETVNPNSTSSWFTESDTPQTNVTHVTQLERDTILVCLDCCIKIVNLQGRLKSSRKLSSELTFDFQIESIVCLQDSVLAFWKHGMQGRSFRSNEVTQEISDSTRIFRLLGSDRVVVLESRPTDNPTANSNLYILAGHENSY

Assay [7] concerns the target RAC-gamma serine/threonine-protein kinase (Homo sapiens, UniProt Q9Y243).
Note: in the data inactive means no Kd found up to 30 µM.

Receptor-interacting serine/threonine-protein kinase 3, sequence (Q9Y572 whole entry): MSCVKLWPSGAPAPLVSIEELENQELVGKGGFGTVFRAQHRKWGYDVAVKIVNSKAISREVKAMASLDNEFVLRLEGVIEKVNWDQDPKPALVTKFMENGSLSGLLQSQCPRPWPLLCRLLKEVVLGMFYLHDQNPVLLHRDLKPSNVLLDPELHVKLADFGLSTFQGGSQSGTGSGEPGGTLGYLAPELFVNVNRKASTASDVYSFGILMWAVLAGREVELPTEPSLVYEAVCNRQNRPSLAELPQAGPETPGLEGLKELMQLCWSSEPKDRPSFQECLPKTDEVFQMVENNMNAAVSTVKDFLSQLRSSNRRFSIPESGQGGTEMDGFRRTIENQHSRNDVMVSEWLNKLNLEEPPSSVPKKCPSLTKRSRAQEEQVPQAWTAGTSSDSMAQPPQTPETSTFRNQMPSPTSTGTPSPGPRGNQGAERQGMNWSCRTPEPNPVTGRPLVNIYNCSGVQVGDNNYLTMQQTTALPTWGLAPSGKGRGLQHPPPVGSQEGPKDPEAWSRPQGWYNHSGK
Serine/threonine-protein kinase MRCK alpha, sequence (Q5VT25 whole entry): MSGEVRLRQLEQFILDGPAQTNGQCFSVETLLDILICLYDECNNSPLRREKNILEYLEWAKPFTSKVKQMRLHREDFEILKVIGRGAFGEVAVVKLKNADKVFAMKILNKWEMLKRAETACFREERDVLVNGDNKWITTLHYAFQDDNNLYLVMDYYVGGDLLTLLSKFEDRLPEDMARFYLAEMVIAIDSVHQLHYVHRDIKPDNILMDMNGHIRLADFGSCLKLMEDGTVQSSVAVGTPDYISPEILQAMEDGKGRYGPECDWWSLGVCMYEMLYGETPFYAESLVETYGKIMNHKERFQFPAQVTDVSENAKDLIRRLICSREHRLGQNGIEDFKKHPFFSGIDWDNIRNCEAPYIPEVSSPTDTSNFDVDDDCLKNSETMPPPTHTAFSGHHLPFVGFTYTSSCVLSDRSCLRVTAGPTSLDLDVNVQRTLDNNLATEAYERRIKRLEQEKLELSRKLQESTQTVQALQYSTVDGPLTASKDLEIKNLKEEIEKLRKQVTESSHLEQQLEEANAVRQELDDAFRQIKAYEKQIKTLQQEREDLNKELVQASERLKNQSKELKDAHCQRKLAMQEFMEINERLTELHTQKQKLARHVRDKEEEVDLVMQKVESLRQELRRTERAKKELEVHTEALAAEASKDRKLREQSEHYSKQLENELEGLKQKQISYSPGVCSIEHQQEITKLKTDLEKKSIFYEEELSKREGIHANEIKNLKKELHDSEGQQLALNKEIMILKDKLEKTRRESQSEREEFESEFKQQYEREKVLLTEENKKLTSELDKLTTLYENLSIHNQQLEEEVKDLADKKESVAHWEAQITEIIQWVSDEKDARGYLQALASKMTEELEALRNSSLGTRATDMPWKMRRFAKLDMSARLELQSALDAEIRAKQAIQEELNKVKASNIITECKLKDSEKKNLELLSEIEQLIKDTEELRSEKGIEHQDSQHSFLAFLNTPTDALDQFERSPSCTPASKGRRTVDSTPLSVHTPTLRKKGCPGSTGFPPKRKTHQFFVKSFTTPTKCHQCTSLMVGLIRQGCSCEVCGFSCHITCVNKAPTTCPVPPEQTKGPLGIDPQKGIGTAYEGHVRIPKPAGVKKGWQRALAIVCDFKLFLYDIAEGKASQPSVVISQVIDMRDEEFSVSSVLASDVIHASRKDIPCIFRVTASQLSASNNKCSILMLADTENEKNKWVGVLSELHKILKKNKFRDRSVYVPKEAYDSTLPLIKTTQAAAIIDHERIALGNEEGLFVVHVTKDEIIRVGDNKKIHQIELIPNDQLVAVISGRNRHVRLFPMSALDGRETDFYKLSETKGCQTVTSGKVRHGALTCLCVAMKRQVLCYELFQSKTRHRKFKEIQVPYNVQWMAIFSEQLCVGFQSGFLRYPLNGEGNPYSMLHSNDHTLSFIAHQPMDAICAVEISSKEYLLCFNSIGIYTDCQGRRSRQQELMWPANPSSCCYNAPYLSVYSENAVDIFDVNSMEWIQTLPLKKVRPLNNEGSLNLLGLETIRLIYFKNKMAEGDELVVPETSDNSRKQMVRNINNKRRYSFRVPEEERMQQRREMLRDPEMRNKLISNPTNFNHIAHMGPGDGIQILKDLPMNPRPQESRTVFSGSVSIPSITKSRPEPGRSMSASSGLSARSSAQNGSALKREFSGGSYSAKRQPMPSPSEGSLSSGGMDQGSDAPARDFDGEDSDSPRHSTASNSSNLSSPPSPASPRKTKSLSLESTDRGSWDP
Serine/threonine-protein kinase pim-1, sequence (P11309 whole entry): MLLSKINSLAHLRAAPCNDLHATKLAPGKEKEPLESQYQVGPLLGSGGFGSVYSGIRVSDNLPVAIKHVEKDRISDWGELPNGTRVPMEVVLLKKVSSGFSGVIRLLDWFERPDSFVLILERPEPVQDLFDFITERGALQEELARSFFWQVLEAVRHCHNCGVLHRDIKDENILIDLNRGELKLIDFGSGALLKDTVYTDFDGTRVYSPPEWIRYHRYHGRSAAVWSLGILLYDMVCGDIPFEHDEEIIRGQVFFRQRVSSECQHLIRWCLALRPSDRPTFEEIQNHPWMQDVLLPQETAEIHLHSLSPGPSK
RAC-gamma serine/threonine-protein kinase, sequence (Q9Y243 whole entry): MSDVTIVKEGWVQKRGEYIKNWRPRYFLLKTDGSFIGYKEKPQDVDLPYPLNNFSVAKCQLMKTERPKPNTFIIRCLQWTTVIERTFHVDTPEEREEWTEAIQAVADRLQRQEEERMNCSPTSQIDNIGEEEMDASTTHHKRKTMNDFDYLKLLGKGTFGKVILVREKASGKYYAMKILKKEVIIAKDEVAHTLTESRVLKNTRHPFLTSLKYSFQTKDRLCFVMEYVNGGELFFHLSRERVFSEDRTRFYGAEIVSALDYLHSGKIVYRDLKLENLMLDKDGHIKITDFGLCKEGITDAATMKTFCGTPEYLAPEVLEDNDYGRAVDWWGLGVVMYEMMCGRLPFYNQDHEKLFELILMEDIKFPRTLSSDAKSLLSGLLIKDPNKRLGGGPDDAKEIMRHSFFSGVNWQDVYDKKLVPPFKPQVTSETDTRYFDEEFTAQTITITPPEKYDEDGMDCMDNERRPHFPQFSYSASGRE

What is called Kd is the concentration at which binding is half-saturated. For `C[C@@H](Oc1cc(C(=O)Nc2ccc(C(=O)N3CCN(C)CC3)cc2)nnc1N)c1c(Cl)ccc(F)c1Cl`, the Kd in assay [1], in assay [2], in assay [3], in assay [4], in assay [5] and in assay [6] was > 30 µM (inactive) in each case.
Take `C[C@H]1CNCCCN1S(=O)(=O)c1cccc2cncc(F)c12`: the Kd in assay [1] is > 30 µM (inactive); in assay [2] it was > 30 µM (inactive); in assay [3], > 30 µM (inactive); in assay [5], > 30 µM (inactive); in assay [6], 3.22 µM.
As to `Cc1csc(-c2nnc(Nc3ccc(Oc4ncccc4-c4ccnc(N)n4)cc3)c3ccccc23)c1` [AMG-900], the Kd in assay [7], in assay [1], in assay [2], in assay [3], in assay [4] and in assay [5] was > 30 µM (inactive) in each case. Further, the Kd in assay [6] was > 30 µM (inactive).
As for `C=CC(=O)Nc1cc2c(Nc3ccc(F)c(Cl)c3)ncnc2cc1C#CC(C)(C)N1CCN(C)CC1` [AV-412 FREE BASE], the Kd in assay [7], in assay [1], in assay [2], in assay [3], in assay [4] and in assay [5] was > 30 µM (inactive) throughout. Also, in assay [6], the Kd is > 30 µM (inactive).
`NC(=O)Nc1cc(-c2cccc(F)c2)sc1C(=O)N[C@H]1CCCNC1` [AZD-7762]: the Kd is > 30 µM (inactive) in assay [7]; > 30 µM (inactive) in assay [1]; 1.79 µM (active) in assay [2]; > 30 µM (inactive) in assay [3]; > 30 µM (inactive) in assay [4]; > 30 µM (inactive) in assay [5]. In addition, in assay [6], the Kd was 0.363 µM (active).
`CCS(=O)(=O)N1CCN(c2ccc(Nc3ncc(C(N)=O)c(NC4CC4)n3)cc2)CC1` [Cerdulatinib Hydrochloride]: the Kd is > 30 µM (inactive) in assay [7]; > 30 µM (inactive) in assay [1]; 0.655 µM (active) in assay [2]; > 30 µM (inactive) in assay [3]; > 30 µM (inactive) in assay [4]; > 30 µM (inactive) in assay [5]. The Kd in assay [6] was 0.033 µM (active).
Take `Cc1nc2cc(-n3ncc(C(=O)c4cc5ccccc5[nH]4)c3N)ccc2[nH]1` [FGFR INHIBITOR DEBIO 1347]: the Kd in assay [7], in assay [1], in assay [2], in assay [3], in assay [4] and in assay [5] was > 30 µM (inactive) throughout. Also, the Kd in assay [6] is > 30 µM (inactive).
Turning to `O=C(Nc1nc2cccc(-c3ccc(CN4CCS(=O)(=O)CC4)cc3)n2n1)C1CC1` [FILGOTINIB], the Kd in assay [7], in assay [1], in assay [2], in assay [3], in assay [4] and in assay [5] was > 30 µM (inactive) throughout. In assay [6], the Kd is > 30 µM (inactive).
Regarding `COc1ccc(S(=O)(=O)N(C(C)=O)c2ccccc2/C=C/c2cc[n+]([O-])cc2)cc1` [HMN-214], the Kd in assay [7], in assay [1], in assay [2], in assay [3], in assay [4] and in assay [5] was > 30 µM (inactive) throughout. Moreover, the Kd in assay [6] was > 30 µM (inactive).
As for `COc1ncc(-c2ccc3nccc(-c4ccnnc4)c3c2)cc1NS(=O)(=O)c1ccc(F)cc1F` [OMIPALISIB], the Kd in assay [7], in assay [1], in assay [2], in assay [3], in assay [4] and in assay [6] was > 30 µM (inactive) each time.
For `NC(=O)c1c(OCc2c(F)cc(Br)cc2F)nsc1NC(=O)NCCCCN1CCCC1` [OSI-632], the Kd in assay [1], in assay [2] and in assay [3] was > 30 µM (inactive) in each case.
As to `CNC(=O)c1cc(Oc2ccc(NC(=O)Nc3cc(C(C)(C)C)nn3-c3ccc4ncccc4c3)c(F)c2)ccn1` [REBASTINIB], the Kd in assay [7] was > 30 µM (inactive); in assay [1], > 30 µM (inactive); in assay [2], > 30 µM (inactive); in assay [3] it was 1.28 µM (active); in assay [4], > 30 µM (inactive); in assay [5], > 30 µM (inactive). Further, in assay [6], the Kd is > 30 µM (inactive).
As for `CO[C@H]1C[C@@H]2CC[C@@H](C)[C@@](O)(O2)C(=O)C(=O)N2CCCC[C@H]2C(=O)O[C@H]([C@H](C)C[C@@H]2CC[C@@H](OP(C)(C)=O)[C@H](OC)C2)CC(=O)[C@H](C)/C=C(\C)[C@@H](O)[C@@H](OC)C(=O)[C@H](C)C[C@H](C)/C=C/C=C/C=C/1C` [RIDAFOROLIMUS], the Kd in assay [7], in assay [1], in assay [2], in assay [3], in assay [4] and in assay [5] was > 30 µM (inactive) throughout. Also, the Kd in assay [6] was > 30 µM (inactive).
For the compound `CN1CCN(CCOc2cc(OC3CCOCC3)c3c(Nc4c(Cl)ccc5c4OCO5)ncnc3c2)CC1` [SARACATINIB], the Kd in assay [7] was > 30 µM (inactive); in assay [1], > 30 µM (inactive); in assay [2] it was > 30 µM (inactive); in assay [3] it was 1.77 µM (active); in assay [4], > 30 µM (inactive); in assay [5] it was > 30 µM (inactive). In addition, the Kd in assay [6] is > 30 µM (inactive).
`Cn1cc(-c2cnn3c(N)c(Br)c([C@@H]4CCCNC4)nc23)cn1` [SCH-900776]: the Kd was > 30 µM (inactive) in assay [7]; > 30 µM (inactive) in assay [1]; > 30 µM (inactive) in assay [2]; > 30 µM (inactive) in assay [3]; > 30 µM (inactive) in assay [4]; 19.3 µM (active) in assay [5]. Moreover, in assay [6], the Kd is > 30 µM (inactive).
For the compound `CCS(=O)(=O)c1cccc(-c2cc(C(=O)NC3CCN(C)CC3)c(C)c3[nH]c4ncc(C)cc4c23)c1` [TAK-901], the Kd in assay [7], in assay [1], in assay [2], in assay [3], in assay [4] and in assay [5] was > 30 µM (inactive) throughout. In addition, the Kd in assay [6] turned out to be 9.28 µM.
Regarding `Cn1ncc(Cl)c1-c1cc(C(=O)N[C@H](CN)Cc2ccc(F)c(F)c2)oc1Cl` [UPROSERTIB], the Kd in assay [1], in assay [2], in assay [3], in assay [4], in assay [5] and in assay [6] was > 30 µM (inactive) in each case.
`C[C@@H](N)c1ccc(C(=O)Nc2ccnc3[nH]ccc23)cc1` [Y-39983]: the Kd in assay [7], in assay [1], in assay [2], in assay [3], in assay [4] and in assay [5] was > 30 µM (inactive) in each case. Further, in assay [6], the Kd is > 30 µM (inactive).
